T1: ML-IAP-BIR (Homo sapiens, UniProt Q96CA5)
T1 construct: made in house; host or cells: Escherichia coli BL21 (DE3)
T1 sequence (Q96CA5 63-179): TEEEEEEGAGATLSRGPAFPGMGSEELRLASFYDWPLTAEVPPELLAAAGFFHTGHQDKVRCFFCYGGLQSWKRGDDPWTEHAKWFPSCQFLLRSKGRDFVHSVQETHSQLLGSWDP


Key:
XIAP-BIR3 = XIAP-BIR3 (Homo sapiens, UniProt P98170); assay: fluorescence polarization-based competition assay; assay type: binding; parameters: X-IAP BIR3 (amino acids residues 241-356); made in house; host or cells: Escherichia coli BL21 (DE3)
XIAP-BIR3, sequence (P98170 241-356): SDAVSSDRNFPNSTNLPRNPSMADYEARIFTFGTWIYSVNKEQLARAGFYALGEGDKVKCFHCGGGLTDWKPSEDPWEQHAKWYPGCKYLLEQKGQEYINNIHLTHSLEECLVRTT
Method: (§1) The apparent Kd values can be determined from the EC50 values.
(§2) The apparent Kd values were determined from the EC50 values. […] Samples were read after a 10-minute incubation.

ML-IAP-BIR = biological target: T1, ML-IAP-BIR; assay: fluorescence polarization-based competition assay; assay type: binding
Method: as §1, §2

XIAP-BIR2 = biological target: T2, XIAP-BIR2 (Homo sapiens, UniProt P98170, C202A/C213G); assay: fluorescence polarization-based competition assay; assay type: binding; settings: Table 3, positional scanning
T2 construct: X-IAP BIR2 (amino acid residues 124-240 with mutations C202A and C213G); made in house; host or cells: Escherichia coli BL21 (DE3)
T2 sequence (P98170 124-240 C202A/C213G): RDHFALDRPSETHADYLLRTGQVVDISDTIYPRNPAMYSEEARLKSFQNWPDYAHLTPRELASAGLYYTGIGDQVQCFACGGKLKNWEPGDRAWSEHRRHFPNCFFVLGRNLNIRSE
Method: as §1, §2

[1] = biological target: the molecule itself; assay: crystal structure, self-association

| Molecule | Ki (XIAP-BIR3) [µM] | Ki (ML-IAP-BIR) [µM] | Ki (XIAP-BIR2) [µM] | binding result [1] |
| --- | --- | --- | --- | --- |
| CC(C)[C@H](NC(=O)[C@H](C)N)C(=O)N1CCC[C@H]1C(=O)N[C@@H](Cc1ccc(S(=O)(=O)O)cc1)C(=O)N[C@@H](C)C(=O)N[C@@H](CCC(N)=O)C(=O)N[C@@H](CCCCN)C(=O)N[C@@H](CO)C(=O)N[C@@H](CCC(=O)O)C(=O)O [AVPX2AQKSE] | 8.5 |  |  |  |
| CC(C)[C@H](NC(=O)[C@H](C)N)C(=O)N1CCC[C@H]1C(=O)N[C@@H](Cc1ccc(I)cc1)C(=O)N[C@@H](C)C(=O)N[C@@H](CCC(N)=O)C(=O)N[C@@H](CCCCN)C(=O)N[C@@H](CO)C(=O)N[C@@H](CCC(=O)O)C(=O)O [AVPX10AQKSE] | 1 | 0.45 | 27.7 |  |
| CC(C)[C@H](NC(=O)[C@H](C)N)C(=O)N1CCC[C@H]1C(=O)N[C@@H](CC1CCCC1)C(=O)N[C@@H](C)C(=O)N[C@@H](CCC(N)=O)C(=O)N[C@@H](CCCCN)C(=O)N[C@@H](CO)C(=O)N[C@@H](CCC(=O)O)C(=O)O [AVPX7AQKSE] |  | 7.9 | 229 |  |
| ML-IAP-BIR (other, human, UniProt Q96CA5 63-179, looked up, range 63-179; Expressed in E. coli BL21(DE3) from pET15b-MLIAPBIR; also called BIR domain of ML-IAP; not shown: possible N-terminal tag from the pET15b vector (purified on Ni-agarose)) TEEEEEEGAGATLSRGPAFPGMGSEELRLASFYDWPLTAEVPPELLAAAGFFHTGHQDKVRCFFCYGGLQSWKRGDDPWTEHAKWFPSCQFLLRSKGRDFVHSVQETHSQLLGSWDP |  |  |  | binds |

Source: patent publication EP1590666B1, “COMPOSITIONS AND METHODS FOR ENHANCING APOPTOSIS” (GENENTECH, INC., priority 2003, dated 2004)
